In ChEMBL document CHEMBL1201862, “PubChem BioAssay data set” (2004):
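These data come from cells grown in 96-well plates and exposed to compound for 48 hours at five concentrations. At the GI50, growth is halved.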 Active and inactive are the calls of the source. Cut-off read from the data, not from the text of the source: active = GI50 up to about 1.1 µM and inactive = higher.

Experiments:
Test in all cases: NCI tumour cell line growth inhibition, 48 h
A498 = tested on: A498
CAKI-1 = tested on: CAKI-1
U-251 = tested on: U-251
M14 = tested on: M14
NCI-H23 = tested on: NCI-H23
NCI/ADR-RES = tested on: NCI/ADR-RES
SK-MEL-28 = tested on: SK-MEL-28
ACHN = tested on: ACHN
OVCAR-3 = tested on: OVCAR-3
HT-29 = tested on: HT-29
SF-268 = tested on: SF-268
NCI-H522 = tested on: NCI-H522
MDA-MB-231 = tested on: MDA-MB-231
MDA-N = tested on: MDA-N
K562 = tested on: K562
CCRF-CEM = tested on: CCRF-CEM
SR = tested on: SR
SNB-75 = tested on: SNB-75
COLO 205 = tested on: COLO 205

SMILES	GI50 (A498)	GI50 (CAKI-1)	GI50 (U-251)	GI50 (M14)	GI50 (NCI-H23)	GI50 (NCI/ADR-RES)	GI50 (SK-MEL-28)	GI50 (ACHN)	GI50 (OVCAR-3)	GI50 (HT-29)	GI50 (SF-268)	GI50 (NCI-H522)	GI50 (MDA-MB-231)	GI50 (MDA-N)	GI50 (K562)	GI50 (CCRF-CEM)	GI50 (SR)	GI50 (SNB-75)	GI50 (COLO 205)
COc1ccc(N2CCN(Cc3c(C(C)=O)[n+]([O-])c4ccccc4[n+]3[O-])CC2)cc1	44.7 µM (inactive)	> 100 µM (inactive)	45 µM (inactive)	45.5 µM (inactive)	10.6 µM (inactive)	24.5 µM (inactive)	43.3 µM (inactive)	22 µM (inactive)	> 100 µM (inactive)	45.6 µM (inactive)	21.1 µM (inactive)	36.1 µM (inactive)	31.2 µM (inactive)	36.4 µM (inactive)	> 100 µM (inactive)	61.1 µM (inactive)	37.8 µM (inactive)	15.6 µM (inactive)	60.8 µM (inactive)
O=C1C(O)=C(C(C2=C(O)C(=O)c3ccccc3C2=O)c2ccc(Cl)cc2)C(=O)c2ccccc21	18.4 µM (inactive)	9.4 µM (inactive)	6.24 µM (inactive)	9.59 µM (inactive)	4.85 µM (inactive)	11.6 µM (inactive)	28.1 µM (inactive)	6.46 µM (inactive)	4.93 µM (inactive)	7.87 µM (inactive)	10.4 µM (inactive)	8.95 µM (inactive)	3.15 µM (inactive)	1.83 µM (inactive)	15.2 µM (inactive)	6.4 µM (inactive)	3.18 µM (inactive)	2.5 µM (inactive)	18.6 µM (inactive)
O=C(O)CCC1(C(=O)O)CCC(=O)c2ccccc21 (centres undefined)	> 100 µM (inactive)	> 100 µM (inactive)	> 100 µM (inactive)	> 100 µM (inactive)	> 100 µM (inactive)	> 100 µM (inactive)	> 100 µM (inactive)	> 100 µM (inactive)	> 100 µM (inactive)	> 100 µM (inactive)	> 100 µM (inactive)	> 100 µM (inactive)	> 100 µM (inactive)	> 100 µM (inactive)	> 100 µM (inactive)	> 100 µM (inactive)	> 100 µM (inactive)	> 100 µM (inactive)	> 100 µM (inactive)
Oc1cc(F)cc2cccnc12	6.58 µM (inactive)	3.96 µM (inactive)	0.957 µM (active)	1.02 µM (active)	1.09 µM (active)	0.281 µM (active)	48 µM (inactive)	0.933 µM (active)	0.0975 µM (active)	4.47 µM (inactive)	0.218 µM (active)	0.183 µM (active)	1.54 µM (inactive)	12.6 µM (inactive)	0.105 µM (active)	0.0778 µM (active)	0.182 µM (active)	11.8 µM (inactive)	5.89 µM (inactive)
C[C@H](c1ccccc1)n1c(N)c(-c2nc3ccccc3s2)c2ccc([N+](=O)[O-])cc2c1=O	11 µM (inactive)	15.4 µM (inactive)	3.66 µM (inactive)	14.8 µM (inactive)	1.87 µM (inactive)	2.84 µM (inactive)	3 µM (inactive)	10.1 µM (inactive)	4.57 µM (inactive)	5.37 µM (inactive)	6.27 µM (inactive)	1.32 µM (inactive)	3.89 µM (inactive)	13.6 µM (inactive)	1.23 µM (inactive)	0.773 µM (active)	1.44 µM (inactive)	4.58 µM (inactive)	5.43 µM (inactive)
O=C(N/N=C\C=C\c1ccc([N+](=O)[O-])o1)C(=O)N/N=C\C=C\c1ccc([N+](=O)[O-])o1	> 100 µM (inactive)	> 100 µM (inactive)	> 100 µM (inactive)	32.1 µM (inactive)	> 100 µM (inactive)	26 µM (inactive)	> 100 µM (inactive)	> 100 µM (inactive)	24.1 µM (inactive)	> 100 µM (inactive)	> 100 µM (inactive)	> 100 µM (inactive)	> 100 µM (inactive)	> 100 µM (inactive)	> 100 µM (inactive)	1.36 µM (inactive)	35.5 µM (inactive)	> 100 µM (inactive)	> 100 µM (inactive)
O=C(/C(Cl)=C/c1ccccc1)c1ccccc1	20.6 µM (inactive)	1.7 µM (inactive)	4.27 µM (inactive)	2.28 µM (inactive)	11.1 µM (inactive)	3.55 µM (inactive)	2.29 µM (inactive)	2.24 µM (inactive)	2.21 µM (inactive)	1.46 µM (inactive)	7.06 µM (inactive)	1.58 µM (inactive)	5.6 µM (inactive)	1.86 µM (inactive)	2.06 µM (inactive)	0.692 µM (active)	1.85 µM (inactive)	13.2 µM (inactive)	2.58 µM (inactive)
COc1ccccc1/C=C/C1=NN(c2cccc(S(=O)(=O)O)c2)C2(C1)C(Cl)C(=O)N2c1nc2ccccc2s1 (centres undefined)	> 81.3 µM (inactive)	31.8 µM (inactive)	52.7 µM (inactive)	> 75.3 µM (inactive)	31.9 µM (inactive)	> 100 µM (inactive)	> 100 µM (inactive)	57.3 µM (inactive)	31.5 µM (inactive)	82.4 µM (inactive)	> 100 µM (inactive)	9.04 µM (inactive)	> 94.6 µM (inactive)	85.3 µM (inactive)	31.4 µM (inactive)	13.5 µM (inactive)	22.1 µM (inactive)	42.8 µM (inactive)	88.9 µM (inactive)
Nc1nc(-c2ccccc2)cc(-c2ccc(OCc3ccccc3)cc2O)n1	60.3 µM (inactive)	57.1 µM (inactive)	31.8 µM (inactive)	30.8 µM (inactive)	38.3 µM (inactive)	29.4 µM (inactive)	89.9 µM (inactive)	31.3 µM (inactive)	26.7 µM (inactive)	37.8 µM (inactive)	44.3 µM (inactive)	20.5 µM (inactive)	70.3 µM (inactive)	39.3 µM (inactive)	43 µM (inactive)	17 µM (inactive)	39.8 µM (inactive)	67.6 µM (inactive)	45.7 µM (inactive)
COc1nc2c(c(=O)n1C)N=C(c1ccccc1)[C@H](C(CC(=O)c1ccccc1)c1ccccc1)C(c1ccccc1)N2 (some centres undefined)	> 100 µM (inactive)	27 µM (inactive)	> 100 µM (inactive)	> 100 µM (inactive)	> 100 µM (inactive)	39.6 µM (inactive)	> 100 µM (inactive)	50.4 µM (inactive)	> 100 µM (inactive)	44.7 µM (inactive)	–	25.9 µM (inactive)	16.2 µM (inactive)	35.8 µM (inactive)	55.5 µM (inactive)	> 100 µM (inactive)	78 µM (inactive)	10 µM (inactive)	98.9 µM (inactive)
